Target: purified human Factor XIIa (Homo sapiens (Human), UniProt P00748)
Experiment: Factor XIIa assay
Format: biochemical
Details: substrate n-Acetyl-Lys-Pro-Arg-AFC 100 μM, pH 7.4, read-out: FXIIa IC50
Procedure: “FXIIa IC50(nm)” is Human Factor XIIa IC50 (nm).
The effectiveness of a compound of the present invention as an inhibitor of Coagulation Factor XIIa can be determined using a relevant purified serine protease, and an appropriate synthetic substrate. The rate of hydrolysis of the chromogenic or fluorogenic substrate by the relevant serine protease was measured both in the absence and presence of compounds of the present invention. Assays were conducted at room temperature or at 37° C. […] A decrease in the rate of fluorescence change in the presence of inhibitor is indicative of enzyme inhibition. Such methods are known to one skilled in the art. The results of this assay are expressed as the IC50, the inhibitor concentration causing a 50% decrease in Factor XIIa protease activity.
Factor XIIa activity determinations were made in 50 mM HEPES buffer containing 150 mM NaCl, 5 mM CaCl2, and 0.1% PEG 8000 (polyethylene glycol; JT Baker or Fisher Scientific) at pH 7.4. Determinations were made using purified human Factor XIIa at a final concentration of […] (Sekisui Diagnostics) and the synthetic substrate, n-Acetyl-Lys-Pro-Arg-AFC, TFA salt (Sigma # C6608) at a concentration of 100 μM.
Times required to achieve equilibration between enzyme and inhibitor were determined in control experiments. Initial velocities of product formation in the absence (Vo) or presence of inhibitor (Vi) were measured.

purified human Factor XIIa, sequence (P00748 373-615): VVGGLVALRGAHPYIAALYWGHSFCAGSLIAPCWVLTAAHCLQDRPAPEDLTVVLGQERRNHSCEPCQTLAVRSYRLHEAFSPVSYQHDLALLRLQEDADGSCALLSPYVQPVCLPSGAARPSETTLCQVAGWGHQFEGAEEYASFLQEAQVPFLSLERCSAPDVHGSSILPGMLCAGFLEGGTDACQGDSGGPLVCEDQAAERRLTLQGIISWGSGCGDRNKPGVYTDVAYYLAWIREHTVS
purified human Factor XIIa, sequence (P00748 20-372 partner): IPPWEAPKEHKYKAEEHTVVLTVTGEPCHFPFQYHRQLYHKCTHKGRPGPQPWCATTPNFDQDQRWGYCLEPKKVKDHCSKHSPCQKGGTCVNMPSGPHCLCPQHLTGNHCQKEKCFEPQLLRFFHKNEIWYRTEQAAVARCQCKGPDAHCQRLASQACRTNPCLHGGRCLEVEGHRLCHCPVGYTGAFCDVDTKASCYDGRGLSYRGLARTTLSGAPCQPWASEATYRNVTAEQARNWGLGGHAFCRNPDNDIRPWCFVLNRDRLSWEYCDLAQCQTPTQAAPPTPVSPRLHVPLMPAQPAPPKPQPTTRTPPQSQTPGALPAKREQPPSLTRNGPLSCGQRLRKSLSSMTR

| IC50 [nM] | SMILES |
| --- | --- |
| 11.5 | O=C(NCc1cccs1)[C@H]1CN(C(=O)[C@@H](CCCCN2CCCS2(=O)=O)NC2CCCCC2)CC[C@H]1NC(=O)N1CCC2(CC1)CC2 [Compound 17, N-{(3S,4R)-1-[N-cyclohexyl-6-(1,1-dioxidoisothiazolidin-2-yl)-D-norleucyl]-3-[(thiophen-2-ylmethyl)carbamoyl]pi-peridin-4-yl}-6-azaspiro[2.5]octane-6-carboxamide] |
| 60.2 | Cc1csc(CNC(=O)[C@H]2CN(C(=O)[C@@H](CCCCN)NC3CCCCC3)CC[C@H]2NC(=O)N2CCC3(CC2)CC3)c1 [Compound 15, N-[(3S,4R)-1-(N~2~- cyclohexyl-D-lysyl)-3-{[(4-methylthiophen-2-yl)methyl]carbamoyl}pi-peridin-4-yl]-6-azaspiro[2.5]octane-6-carboxamide] |

Reference: US11014920B2, “Factor XIIa inhibitors” (Merck Sharp & Dohme Corp., priority 2016, dated 2021)
